Our source for the Activity and ED50 values is ChEMBL document CHEMBL1158938, “In vitro effects of tremorgenic mycotoxins” (J Nat Prod, 1991).

What is called ED50 is the midpoint of the dose-response relation.

Molecules are shown by their SMILES. Activity calls are given as the source filed them. The rule behind the calls is not given here.

For series [1], the system named is Ileum. Nature of the series: Induction of electrically-stimulated guinea pig ileum twitch contraction at 1 ug/ml relative to control in presence of hyoscine. It counts as functional, Cavia porcellus.
The test system of series [2] is Ileum. Description: Induction of electrically-stimulated guinea pig ileum twitch contraction at 100 ng/ml relative to control in presence of hyoscine. The series is classed as functional, Cavia porcellus.
Series [3] deals with Ileum. Nature of the series: Induction of electrically-stimulated guinea pig ileum twitch contraction at 10 ng/ml relative to control in presence of hyoscine. The series is classed as functional, Cavia porcellus.
The subject of series [4] is Ileum. Nature of the series: Induction of electrically-stimulated guinea pig ileum contraction at 10 ng/ml relative to control in presence of acetylcholine. It counts as functional, Cavia porcellus.
The subject of series [5] is Ileum. Description: Induction of electrically-stimulated guinea pig ileum contraction at 100 ng/ml relative to control in presence of acetylcholine. The series is classed as functional, Cavia porcellus.
Series [6] relates to Ileum. Description: Induction of guinea pig ileum contraction. It counts as functional, tissue-based. The following applies: Cavia porcellus.
The test system of series [7] is Ileum. Nature of the series: Induction of electrically-stimulated guinea pig ileum contraction at 1 ug/ml relative to control in presence of acetylcholine. It counts as functional, Cavia porcellus.
The nature of series [8]: Tremorgenic activity in ip dosed mouse. The following applies: in vivo. The series is classed as ADME, organism-based.
In series [9] the test system is Ileum. Nature of the series: Induction of electrically-stimulated guinea pig ileum twitch contraction at 10 ng/ml. It counts as functional, tissue-based. Particulars: Cavia porcellus.

Regarding `CC(C)(O)[C@H]1O[C@H]2CC[C@@]3(C)[C@@](O)(CC[C@H]4Cc5c([nH]c6ccccc56)[C@@]43C)C2=CC1=O` [PAXILLINE], the Activity in the series with Ileum [1] was 2%; in the series on Ileum [2], 11%; with Ileum [3], 9%; in the series on Ileum [4] it was 121%; in the series on Ileum [5] it was 118%; with Ileum [6] it was “Dose-dependent effect”. The Activity with Ileum [7] was 126%. Moreover, the ED50 in [8] was found to be 25 mg/kg.

`C=C1Cc2ccc3[nH]c4c5c3c2[C@H]2[C@@H]1C[C@@H]2C(C)(C)O[C@H]5[C@@H]1CC[C@@]2(O)[C@@]35O[C@@H]3[C@@H](O)[C@@H](C(=C)C)O[C@H]5CC[C@]2(C)[C@@]41C` [PENITREM B]: the Activity stood at 10% with Ileum [1]; 10% in the series with Ileum [2]; 12% in the series with Ileum [3]; 111% in the series with Ileum [4]; 96% in the series with Ileum [5]; 117% in the series on Ileum [7]. This compound displayed an ED50 in series [8] of 5 mg/kg.

Regarding `COc1ccc2c3c4n(c2c1)[C@H](C=C(C)C)OOC(C)(C)C[C@@H]4N1C(=O)[C@@H]2CCCN2C(=O)[C@]1(O)[C@H]3O` [VERRUCULOGEN], the Activity with Ileum [1] was 14%; with Ileum [2] it was 11%; with Ileum [3], 7%; in the series with Ileum [4] it was 127%; in the series on Ileum [5], 123%; with Ileum [6] it was “Dose-dependent effect”. Further, in the series on Ileum [7], the Activity is given as 109%. The outcome in the series with Ileum [9] was Active. This compound also displayed an ED50 in series [8] of 0.39 mg/kg.
